Experimental data reported in patent US11970712B2, “Midbrain dopamine (DA) neurons for engraftment” (MEMORIAL SLOAN-KETTERING CANCER CENTER, priority 2011, dated 2024).

Legend:
hESC = test: Immunocytochemistry, percentage of marker positive cells in differentiating cultures; format: cell-based, human
Experimental: (§1) Immunohistochemistry: Cells were fixed in 4% PFA and blocked with 1% bovine serum albumin (BSA) with 0.3% Triton. Brain tissue sections were washed in cold PBS and processed similarly. Primary antibodies were diluted in 1-5% BSA or Normal Goat Serum and incubated according to manufacturer recommendations. A comprehensive list of antibodies and sources is provided as Table 6. Appropriate Alexa488, Alexa555 and Alexa647-conjugated secondary antibodies (Molecular Probes, Carlsbad, California) were used with 4′,6-diamidino-2-phenylindole (DAPI) nuclear counterstain (Thermo Fisher, Rockford, Illinois). For some analyses biotinylated secondary antibodies were used followed by visualization via DAB (3,3′-Diaminobenzidine) chromogen.
Cell Counts and Stereological Analyses. The percentages of marker positive cells at the floor plate (day 11) FIG. 1, midbrain dopamine neuron precursor (day 25), FIG. 2 and mature DA neuron stages (day 50 or later) FIGS. 3 and 11, were determined in samples derived from at least 3 independent experiments each. Images for quantification were selected in a uniform random manner and each image was scored first for the number of DAPI-positive nuclei, followed by counting the number of cells expressing the marker of interest. Data are presented as mean±SEM. Quantification of human cells (identified with anti-hNA) and TH+ neurons within grafts was performed on every tenth section where a graft was identifiable. Cell counts and graft volume was determined using the optical fractionator's probe and the Cavalieri estimator using the Stereo Investigator software (MBF bioscience, Vermont) as described previously in Tabar, et al. Nat. Biotechnol. 23:601-606 (2005), herein incorporated by reference. Data are presented as estimated total cell number and total graft volume+/−standard error of means (SEM).
as §1, with “chromogen. HPLC” for “chromogen.”
Analysis. Reversed-phase HPLC with electrochemical detection for measuring levels of dopamine, Homovanillic acid (HVA) and DOPAC (3,4-Dihydroxy-Phenylacetic Acid) was performed as described previously (Roy, et al. Nature Med. 12:1259-1268 (2006); Studer, et al. Brain Res. Bull. 41:143-150 (1996), all of which are herein incorporated by reference). Culture samples were collected in perchloric acid at day 65 of differentiation. For some experiments DA was measured directly in the medium using the same detection system but following aluminum extraction of dopamine and its metabolites using a commercially available kit as described previously (Studer, et al. Brain Res. Bull. 41:143-150 (1996), herein incorporated by reference). […]

rodent GSK3β homologs = conditions: cited from earlier work
rosette stage cells = test: Rosette-based DA neuron induction culture; format: cell-based, human; conditions: concentration suitable for patterning floor plate cells
Text: Both protocols used dual-SMAD inhibition to accelerate neural fate acquisition. LDN was used for BMP inhibition in the floor plate protocol while the traditional noggin induction was used for rosette cultures. The abbreviations are: LDN: LDN-193189, SB: SB431542, SHH (purmorphamine+SHH C25II), FGF8: FGF8, BAGCT: BDNF+ascorbic acid+GDNF+dbcAMP+TGFβ3. SHH/FGF8 in the rosette protocol used SHH C25I alone in the absence of purmorphamine following the initial recommendation for patterning of rosette-derived DA neuron cultures. […] BASF: BDNF+ascorbic acid+SHH/FGF8.
For rosette-based DA neuron induction previously described protocols were followed in part (Perrier, et al. Proc Natl Acad Sci USA 101:12543-8 (2004), herein incoropoated by reference) with at least one exception where dual-SMAD inhibition was used to accelerate the initial neural induction step. In brief, hESCs were induced towards neural fate by coculture with irradiated MS5 cells in KSR supplemented with SB431542 and Noggin (250 ng/ml (ranging in concentration from 10-1000 ng/ml); R&D), from day 2-8 and SHH+FGF8 from day 6-11 of differentiation. After 11 days in KSR, neural rosettes were manually isolated and cultured (P1 stage) in N2 medium supplemented with SHH, FGF8, BDNF and AA as described previously (Perrier, et al. Proc Natl Acad Sci USA 101:12543-8 (2004), herein incorporated by reference). […]

[1] = test system: PINK1 mutant PD-iPSC derived TH+ DA neurons; test: Toxin challenge, TH immunocytochemistry; format: cell-based, human
Experimental: (§2) PD-iPSC derived TH+ DA neurons derived via the floor-plate based protocols of the present inventions were more vulnerable to toxin challenge (valinomycin: mitochondria ionophore, 5 uM, 48 hr) than control-iPSC derived cells. […] G-H) low power images of immunocytochemistry for Tuj1 (red) and TH (green) by floor-plate based protocol at day 60 of differentiation: PD-iPSC of normal (G), versus toxin challenge (H) conditions and control iPSC of normal (I), versus toxin challenge (J) conditions. K-N) low power images of immunocytochemistry for Tuj1 (red) and TH (green) by MS5 based protocol at day 60 of differentiation: PD-iPSC of normal (K), versus toxin challenge (L) conditions and control iPSC of normal (M), versus toxin challenge (N) conditions.
(§3) E. DA neurons derived from genetic PD-iPS cells are more vulnerable to toxic stimulation. FIG. 24-25. PD-iPSC derived TH+DA neurons derived via floor-plate based protocol were more vulnerable to toxin challenge (valinomycin: mitochondria ionophore, 5 uM (ranging in concentration from 1-10 uM), 48 hr) than control-iPSC derived cells. […] Normal condition both of PD- and control-iPSC derived cultures obtained via MS5 based protocol (D, PD-iPSC derived cells shown), TH+ neurons following toxin challenge in PD-iPSC (E), and control-iPSC derived cultures (F) obtained via MS5 protocol. G-H) low power images of immunocytochemistry for Tuj1 (red) and TH (green) by floor-plate based protocol at day 60 of differentiation: PD-iPSC of normal (G), versus toxin challenge (H) conditions and control iPSC of normal (I), versus toxin challenge (J) conditions. K-N) low power images of immunocytochemistry for Tuj1 (red) and TH (green) by MS5 based protocol at day 60 of differentiation: PD-iPSC of normal (K), versus toxin challenge (L) conditions and control iPSC of normal (M), versus toxin challenge (N) conditions. F.
(§4) Exemplary DA neurons derived from PINK1 mutant PD-iPSC are more vulnerable to toxic stimulation. […]

[2] = test system: control-iPSC derived TH+ DA neurons; test: Toxin challenge, TH immunocytochemistry; format: cell-based, human; conditions: 5 uM, 48 hr, floor-plate protocol, day 60
Experimental: as §2, §3, §4

[3] = test system: PD-iPSC and control iPSC derived cells; test: Cell viability assay with alamar-blue, dose response for toxin challenge; format: cell-based, human; conditions: 48 hrs, 5 and 10 uM, day 60
Text: (§5) Note: this assay tests for overall cell death while the most dramatic effects were observed specifically in DA neurons (see FIG. 14). Therefore, alamar blue based quantification will likely underestimate the extent of the differential effect observed on DA neuron lineages.
as §5, with “Exemplary quantification of cell viability—dose response assay for toxin challenge. […] Note:” for “Note:”
as §5, with “Exemplary quantification of cell viability-dose response assay for toxin challenge. […] Note:” for “Note:”

Cc1c[nH]c(-c2cnc(NCCNc3ccc(C#N)cn3)nc2-c2ccc(Cl)cc2Cl)n1 [CHIR99021, 6-(2-(4-(2,4-dichlorophenyl)-5-(4-methyl-1H-imidazol-2-yl)pyrimidin-2-ylamino)ethylamino)nicotinonitrile]
potency at inducing LMX1A expression compared with recombinant Wnt3A or Wnt1 (hESC): more potent | timing of exposure giving maximum LMX1A induction (hESC): day 3-11 | LMX1A induction in FOXA2+ floor plate precursors (hESC; day 11): induced LMX1A | co-expression of FOXA2/LMX1A (hESC; day 11): induced co-expression | IC50 against rodent GSK3β homologs (rodent GSK3β homologs): nanomolar

c1ccc2c(Oc3nc(Nc4ccc(N5CCOCC5)cc4)c4ncn(C5CCCCC5)c4n3)cccc2c1 [Purmorphamine]
toxicity at rosette stage (rosette stage cells): shows toxicity

CC(C)[C@@H]1NC(=O)[C@H](C)OC(=O)[C@@H](C(C)C)NC(=O)[C@@H](C(C)C)OC(=O)[C@H](C(C)C)NC(=O)[C@H](C)OC(=O)[C@@H](C(C)C)NC(=O)[C@@H](C(C)C)OC(=O)[C@H](C(C)C)NC(=O)[C@H](C)OC(=O)[C@@H](C(C)C)NC(=O)[C@@H](C(C)C)OC1=O [valinomycin]
degeneration of TH+ DA neurons ([1]; 5 uM, 48 hr, floor-plate protocol, day 60): nearly complete degeneration | vulnerability of PD- versus control-derived TH+ neurons ([1]; classic MS5 based protocol): did not show differential vulnerability | degeneration of TH+ DA neurons [2]: partially degenerated | cell survival PD-iPSC versus control iPSC [3]: differential cell survival

B1: FGF8: Fibroblast growth factor 8 (protein, UniProt P55075 23-233, looked up)
Fibroblast growth factor 8: QEGPGRGPALGRELASLFRAGREPQGVSQQHVREQSLVTDQLSRRLIRTYQLYSRTSGKHVQVLANKRINAMAEDGDPFAKLIVETDTFGSRVRVRGAETGLYICMNKKGKLIAKSNGKGKDCVFTEIVLENNYTALQNAKYEGWYMAFTRKGRPRKGSKTRQHQREVHFMKRLPRGHHTTEQSLRFEFLNYPPFTRSLRGSQRTWAPEPR
co-expression of FOXA2/LMX1A (hESC; day 11): only marginal effects
